Assay results taken from patent publication US4904660A, “Histidine derivatives as superior renin inhibitors” (Yamanouchi Pharmaceutical Co., Ltd., priority 1987, dated 1990).

Target: T1, human plasma renin (Homo sapiens, UniProt P00797)
T1 construct: Into human plasma; from tissue; host or cells: human plasma
T1 sequence (P00797 67-406): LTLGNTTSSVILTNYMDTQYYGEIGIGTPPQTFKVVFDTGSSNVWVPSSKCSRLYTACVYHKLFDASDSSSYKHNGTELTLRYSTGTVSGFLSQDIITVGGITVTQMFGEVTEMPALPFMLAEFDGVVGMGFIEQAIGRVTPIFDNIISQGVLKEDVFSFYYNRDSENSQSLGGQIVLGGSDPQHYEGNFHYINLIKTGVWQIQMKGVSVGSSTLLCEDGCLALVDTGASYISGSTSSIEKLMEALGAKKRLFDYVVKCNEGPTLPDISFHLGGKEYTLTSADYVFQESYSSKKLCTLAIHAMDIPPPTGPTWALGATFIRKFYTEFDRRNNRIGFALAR
Assay: Inhibiting effect to human plasma renin
Format: biochemical
Conditions: angiotensin I formation by radio-immunoassay, 37° C., 2 hours, pH4.6, read-out: IC50 /human plasma (50% inhibiting concentration)
Description: (1) Inhibiting effect to human plasma renin.
Into human plasma (250 μl) having 0.5 ng/ml/hr (37° C.)-angiotensin I forming activity was added 225 μl of an enzyme-inhibitor (BAL, […], pH4.6) and 25 μl of a solution of the test compound in dimethylsulfoxide, and the mixture was stirred. Some portion of the stirred mixture was subjected to incubation at 37° C. for 2 hours, and the rest of the mixture was left at 4° C. Taking 100 μl of each of the mixtures, by measuring the difference of the angiotensin I forming amount by radio-immunoassay at 37° C. and 4° C., the 50% inhibiting concentration IC50 (M) was calculated.

SMILES	IC50 [nM]
CC(C)OC(=O)C(O)[C@H](CC1CCCCC1)NC(=O)[C@H](Cc1c[nH]cn1)NC(=O)C(CC(=O)N1CCOCC1)Cc1cccc2ccccc12 (stereo partly drawn) [Example 40]	4
Cn1nnnc1SCC(O)[C@H](CC1CCCCC1)NC(=O)[C@H](Cc1cnc[nH]1)NC(=O)C(CC(=O)N1CCOCC1)Cc1cccc2ccccc12 (stereo partly drawn) [Example 7, (2RS,3S)-3-[N-[1,4-dioxo-4-morpholino-2-(1-naphthylmethyl)butyl-L-histidylamino)]-4-cyclohexyl-1-(1-methyl-5-tetrazolylthio]-2-butanol]	0.5
Cn1nnnc1SCC(O)[C@H](CC1CCCCC1)NC(=O)[C@H](Cc1cnc[nH]1)NC(=O)[C@H](Cc1ccccc1)NC(=O)OC(C)(C)C (stereo partly drawn) [Example 9]	4
